Drawing on ChEMBL document CHEMBL5143734, “Seco-Lupane Triterpene Derivatives Induce Ferroptosis through GPX4/ACSL4 Axis and Target Cyclin D1 to Block the Cell Cycle” (J Med Chem, 2022), this text covers IC50 for 25 compounds.

Bounds are passed on as bounds.

Assay type in all cases: functional, cell-based
In one experiment the test system is A549. Kind of experiment: Cytotoxicity against human A549 cells assessed as reduction in cell viability by CCK-8 assay. Background: Tetrazolium assays rely on reduction of a dye to a coloured formazan, in cell work by metabolically active cells.
The next experiment relates to MCF7. Kind of experiment: Cytotoxicity against human MCF7 cells assessed as reduction in cell viability by CCK-8 assay.
The next experiment relates to PC-3M. Kind of experiment: Cytotoxicity against human PC-3M cells assessed as reduction in cell viability by CCK-8 assay.
The subject of the next experiment is HepG2. Kind of experiment: Cytotoxicity against human HepG2 cells assessed as reduction in cell viability by CCK-8 assay.
In another experiment the test system is PANC-1. Kind of experiment: Cytotoxicity against human PANC-1 cells assessed as reduction in cell viability by CCK-8 assay.

As to `C=C(C)[C@@H]1CC[C@]2(C(=O)OCCCn3ccnc3CC)CC[C@]3(C)[C@H](C[C@@H](O)[C@@H]4[C@@]5(C)C(CC(=O)OC)OC(C)(C)C5CC[C@]43C)[C@@H]12` (stereo not given in full), the IC50 (usually the concentration that gives 50% inhibition) was found to be 27.4 µM in the experiment on A549; 66.2 µM with MCF7; 24.9 µM with PC-3M; 18.9 µM in the experiment with HepG2; 47.7 µM in the experiment on PANC-1.
Take `C=C(C)[C@@H]1CC[C@]2(C(=O)OCCCCCn3ccnc3CC)CC[C@]3(C)[C@H](C[C@H]4OC(=O)C[C@@H](O)[C@]5(C)[C@@H]4[C@@]3(C)CC[C@H]5C(=C)C)[C@@H]12`: the IC50 stood at 14.3 µM with A549; 50.2 µM in the experiment on MCF7; 12.5 µM with PC-3M; 6.1 µM with HepG2; 12.8 µM in the experiment with PANC-1.
On the same counts, the results for `C=C(C)[C@@H]1CC[C@]2(C(=O)OCCCn3ccnc3C)CC[C@]3(C)[C@H](C[C@@H](O)[C@@H]4[C@@]5(C)C(CC(=O)OC)OC(C)(C)C5CC[C@]43C)[C@@H]12` (stereo not given in full) are 24.9 µM, 69.5 µM, 34.4 µM, 22.6 µM and 50.6 µM.
On the same counts, the results for `C=C(C)[C@@H]1CC[C@]2(C(=O)OCCCCCCn3cnc(C)c3)CC[C@]3(C)[C@H](C[C@@H](O)[C@@H]4[C@@]5(C)C(CC(=O)OC)OC(C)(C)C5CC[C@]43C)[C@@H]12` (stereo not given in full) are 25 µM, 33.4 µM, 18.4 µM, 12.8 µM and 17.7 µM.
On the same counts, the results for `C=C(C)[C@@H]1CC[C@]2(C(=O)OCCCCCn3ccnc3CC)CC[C@]3(C)[C@H](C[C@@H](O)[C@@H]4[C@@]5(C)C(CC(=O)OC)OC(C)(C)C5CC[C@]43C)[C@@H]12` (stereo not given in full) are 25.9 µM, 45.5 µM, 23.9 µM, 14.1 µM and 26.8 µM.
With `C=C(C)[C@@H]1CC[C@]2(C(=O)OCCCCCCn3ccnc3C)CC[C@]3(C)[C@H](C[C@H]4OC(=O)C[C@@H](O)[C@]5(C)[C@@H]4[C@@]3(C)CC[C@H]5C(=C)C)[C@@H]12`, the IC50 in the experiment on A549 was found to be 18.9 µM; with MCF7, 76.2 µM; in the experiment with PC-3M, 14 µM; in the experiment with HepG2 it was 12.9 µM; with PANC-1 it was 17.9 µM.
On the same counts, the results for `C=C(C)[C@@H]1CC[C@]2(C(=O)OCCCn3cncn3)CC[C@]3(C)[C@H](C[C@@H](O)[C@@H]4[C@@]5(C)C(CC(=O)OC)OC(C)(C)C5CC[C@]43C)[C@@H]12` (stereo not given in full) are 31.3 µM, 81.6 µM, 43.2 µM, 29.2 µM and 57 µM.
On the same counts, the results for `C=C(C)[C@@H]1CC[C@]2(C(=O)OCCCCCCCCCCn3ccnc3)CC[C@]3(C)[C@H](C[C@H]4OC(=O)C[C@@H](O)[C@]5(C)[C@@H]4[C@@]3(C)CC[C@H]5C(=C)C)[C@@H]12` are 17.2 µM, 44.9 µM, 11.8 µM, 4.23 µM and 11.3 µM.
On the same counts, the results for `C=C(C)[C@@H]1CC[C@]2(C(=O)O)CC[C@]3(C)[C@H](C[C@H]4OC(=O)C[C@@H](O)[C@]5(C)[C@@H]4[C@@]3(C)CC[C@H]5C(=C)C)[C@@H]12` are 145 µM, over 200 µM, 134 µM, over 200 µM and over 200 µM.
With `C=C(C)[C@@H]1CC[C@]2(C(=O)OCCCCCCn3ccnc3)CC[C@]3(C)[C@H](C[C@H]4OC(=O)C[C@@H](O)[C@]5(C)[C@@H]4[C@@]3(C)CC[C@H]5C(=C)C)[C@@H]12`, the IC50 is 24 µM with A549; 47.1 µM in the experiment on MCF7; 23.2 µM in the experiment with PC-3M; 14.5 µM with HepG2; 45.3 µM in the experiment with PANC-1.
For `C=C(C)[C@@H]1CC[C@]2(C(=O)OCCCCCn3ccnc3)CC[C@]3(C)[C@H](C[C@H]4OC(=O)C[C@@H](O)[C@]5(C)[C@@H]4[C@@]3(C)CC[C@H]5C(=C)C)[C@@H]12`, the concentration for half-maximal inhibition (IC50) in the experiment on A549 turned out to be 25.2 µM; in the experiment on MCF7, 45.6 µM; in the experiment on PC-3M it was 11.8 µM; with HepG2, 16.1 µM; in the experiment with PANC-1 it was 32.3 µM.
With `C=C(C)[C@@H]1CC[C@]2(C(=O)OCCCCCCn3cnc(C)c3)CC[C@]3(C)[C@H](C[C@H]4OC(=O)C[C@@H](O)[C@]5(C)[C@@H]4[C@@]3(C)CC[C@H]5C(=C)C)[C@@H]12`, the IC50 in the experiment on A549 is 14.2 µM; with MCF7, 44.9 µM; in the experiment on PC-3M it was 12.2 µM; in the experiment with HepG2 it was 3.64 µM; in the experiment on PANC-1, 13.3 µM.
On the same counts, the results for `C=C(C)[C@@H]1CC[C@]2(C(=O)OCCCCCCn3cncn3)CC[C@]3(C)[C@H](C[C@@H](O)[C@@H]4[C@@]5(C)C(CC(=O)OC)OC(C)(C)C5CC[C@]43C)[C@@H]12` (stereo not given in full) are 52.7 µM, 79.9 µM, 27.4 µM, 37.8 µM and 59.8 µM.
Consider `C=C(C)[C@@H]1CC[C@]2(C(=O)OCCCCCCCCCCBr)CC[C@]3(C)[C@H](C[C@H]4OC(=O)C[C@@H](O)[C@]5(C)[C@@H]4[C@@]3(C)CC[C@H]5C(=C)C)[C@@H]12`, for which the IC50 came out at 22 µM in the experiment on A549; 53.9 µM in the experiment on MCF7; 17.3 µM in the experiment on PC-3M; 10.9 µM in the experiment with HepG2; 23.1 µM in the experiment with PANC-1.
For the compound `C=C(C)[C@@H]1CC[C@]2(C(=O)OCCCCCn3cc(CCN)c4ccccc43)CC[C@]3(C)[C@H](C[C@@H](O)[C@@H]4[C@@]5(C)C(CC(=O)OC)OC(C)(C)C5CC[C@]43C)[C@@H]12` (stereo not given in full), the IC50 with A549 is 6.63 µM; in the experiment on MCF7 it was 18.1 µM; with PC-3M, 3.87 µM; with HepG2 it was 1.7 µM; in the experiment on PANC-1, 5.81 µM.
On the same counts, the results for `C=C(C)[C@@H]1CC[C@]2(C(=O)OCCCn3cnc(C)c3)CC[C@]3(C)[C@H](C[C@H]4OC(=O)C[C@@H](O)[C@]5(C)[C@@H]4[C@@]3(C)CC[C@H]5C(=C)C)[C@@H]12` are 39.5 µM, 48.6 µM, 18.5 µM, 35.3 µM and 83.8 µM.
With `C=C(C)[C@@H]1CC[C@]2(C(=O)OCCCCCCn3cc(CCN)c4ccccc43)CC[C@]3(C)[C@H](C[C@@H](O)[C@@H]4[C@@]5(C)C(CC(=O)OC)OC(C)(C)C5CC[C@]43C)[C@@H]12` (stereo not given in full), the IC50 is 5.97 µM with A549; 24.5 µM in the experiment with MCF7; 3.99 µM in the experiment on PC-3M; 1.91 µM in the experiment on HepG2; 7.06 µM in the experiment with PANC-1.
On the same counts, the results for `C=C(C)[C@@H]1CC[C@]2(C(=O)OCCCCn3ccnc3)CC[C@]3(C)[C@H](C[C@@H](O)[C@@H]4[C@@]5(C)C(CC(=O)OC)OC(C)(C)C5CC[C@]43C)[C@@H]12` (stereo not given in full) are 36.7 µM, 75.2 µM, 44.3 µM, 26 µM and 53.4 µM.
As to `C=C(C)[C@@H]1CC[C@]2(C(=O)OCCCCCCBr)CC[C@]3(C)[C@H](C[C@H]4OC(=O)C[C@@H](O)[C@]5(C)[C@@H]4[C@@]3(C)CC[C@H]5C(=C)C)[C@@H]12`, the IC50 with A549 came to 27.6 µM; with MCF7 it was 75.7 µM; with PC-3M, 16.1 µM; with HepG2, 12.3 µM; in the experiment with PANC-1, 21.8 µM.
Regarding `C=C(C)[C@@H]1CC[C@]2(C(=O)OCCCCn3ccnc3CC)CC[C@]3(C)[C@H](C[C@H]4OC(=O)C[C@@H](O)[C@]5(C)[C@@H]4[C@@]3(C)CC[C@H]5C(=C)C)[C@@H]12`, the IC50 in the experiment on A549 stood at 19.5 µM; in the experiment on MCF7, 91.1 µM; in the experiment with PC-3M it was 12.1 µM; with HepG2 it was 14.6 µM; in the experiment with PANC-1, 16.1 µM.
On the same counts, the results for `C=C(C)[C@@H]1CC[C@]2(C(=O)OCCCCCCCCCCn3ccnc3CC)CC[C@]3(C)[C@H](C[C@H]4OC(=O)C[C@@H](O)[C@]5(C)[C@@H]4[C@@]3(C)CC[C@H]5C(=C)C)[C@@H]12` are 15.1 µM, 30.9 µM, 13.9 µM, 4.36 µM and 9.93 µM.
`C=C(C)[C@@H]1CC[C@]2(C(=O)OCCCn3ccnc3CC)CC[C@]3(C)[C@H](C[C@H]4OC(=O)C[C@@H](O)[C@]5(C)[C@@H]4[C@@]3(C)CC[C@H]5C(=C)C)[C@@H]12`: the 50% inhibitory concentration (IC50) with A549 came to 21.2 µM; in the experiment with MCF7 it was 47 µM; in the experiment on PC-3M it was 12.3 µM; with HepG2, 16.4 µM; in the experiment with PANC-1, 26.9 µM.
On the same counts, the results for `C=C(C)[C@@H]1CC[C@]2(C(=O)OCCCn3ccnc3)CC[C@]3(C)[C@H](C[C@H]4OC(=O)C[C@@H](O)[C@]5(C)[C@@H]4[C@@]3(C)CC[C@H]5C(=C)C)[C@@H]12` are 55.5 µM, 48.6 µM, 24.7 µM, over 200 µM and 89.1 µM.
On the same counts, the results for `C=C(C)[C@@H]1CC[C@]2(C(=O)OCCCCCn3cncn3)CC[C@]3(C)[C@H](C[C@H]4OC(=O)C[C@@H](O)[C@]5(C)[C@@H]4[C@@]3(C)CC[C@H]5C(=C)C)[C@@H]12` are 18.7 µM, 108 µM, 54.3 µM, 38.3 µM and 41.6 µM.
On the same counts, the results for `C=C(C)[C@@H]1CC[C@]2(C(=O)OCCCCCCn3cc(CCN)c4ccccc43)CC[C@]3(C)[C@H](C[C@H]4OC(=O)C[C@@H](O)[C@]5(C)[C@@H]4[C@@]3(C)CC[C@H]5C(=C)C)[C@@H]12` are 6.5 µM, 5.87 µM, 6 µM, 1.03 µM and 7.02 µM.
